How the values were obtained:
[1] = system: AEA cellular uptake (U937 cells); test: [3H]-AEA cellular uptake inhibition in U937 cells; assay type: cell-based; details: Homo sapiens, U-937, U937 cells, final 100 nM AEA with 0.5 nM [3H]-AEA, 15 min at 37° C.; read-out: AEA uptake IC50
In short: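 U937 cells (0.5×10^6 per sample) pre-incubated with compound (100 pM–100 μM, triplicates) for 15 min at 37 °C, then given 100 nM AEA including 0.5 nM [3H]-AEA for 15 min. Filtration, washing and scintillation counting of cell-associated radioactivity; IC50 by four-parameter nonlinear regression.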

FAAH = target: T1, FAAH (Homo sapiens, UniProt O00519); test: FAAH activity: hydrolysis of [3H]-AEA in U937 cell homogenates; assay type: biochemical; details: [3H]-AEA hydrolysis, final 100 nM AEA, read-out: FAAH inhibition IC50
T1 construct: endogenous in cells; host or cells: U937 cell homogenate
T1 sequence (O00519 1-579): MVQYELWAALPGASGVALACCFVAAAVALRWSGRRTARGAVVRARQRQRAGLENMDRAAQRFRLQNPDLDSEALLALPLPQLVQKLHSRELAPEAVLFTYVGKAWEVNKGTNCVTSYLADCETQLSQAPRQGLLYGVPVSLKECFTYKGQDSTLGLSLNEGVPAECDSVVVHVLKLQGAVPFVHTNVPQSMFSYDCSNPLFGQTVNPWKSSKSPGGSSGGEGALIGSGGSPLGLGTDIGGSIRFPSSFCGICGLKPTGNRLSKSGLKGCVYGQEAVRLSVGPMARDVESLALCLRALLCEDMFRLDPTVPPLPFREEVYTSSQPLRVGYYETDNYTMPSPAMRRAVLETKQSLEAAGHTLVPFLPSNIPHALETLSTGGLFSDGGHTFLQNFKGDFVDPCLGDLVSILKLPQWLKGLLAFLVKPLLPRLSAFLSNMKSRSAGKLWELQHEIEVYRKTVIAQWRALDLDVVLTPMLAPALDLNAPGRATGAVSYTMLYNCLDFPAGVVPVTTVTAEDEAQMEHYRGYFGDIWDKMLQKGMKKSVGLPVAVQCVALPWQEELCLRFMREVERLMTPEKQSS
Method: Hydrolysis of [^3H]-AEA by FAAH was determined as previously described in cell homogenates of U937 cells (0.18 mg protein) (Omeir et al., 1999, Biochem Biophys Res Commun, 264, 316-20; Mor et al., 2004, J Med Chem, 47, 4998-5008). Protein amounts of cell homogenates corresponded to 0.5×10^6 cells (U937), to assure best possible comparability of IC50 values as used for the AEA cellular uptake assays. URB597 was used as positive control. Protein quantification was performed using a BCA assay (Thermo Scientific). Enzyme activity was assessed by addition of vehicle or compounds in 10 μL DMSO to 490 μL homogenate in 10 mM Tris HCl, 1 mM EDTA, 0.1% (w/v) BSA fatty acid free, pH=8 and incubation for 15 min at 37° C. After, a mixture of AEA plus [ethanolamine-1-^3H]-AEA (0.5 nM) at final 100 nM was added to the homogenates and incubated for 15 min at 37° C. The reaction was stopped by addition of 1 mL ice-cold CHCl3:MeOH (1:1) followed by vigorous vortexing. Phase separation was achieved by centrifugation at 10'000×g at 4° C. for 10 min. Radioactivity of the separated aqueous phase (upper phase) containing [^3H-ethanolamine] or [^3H-glycerol] was measured by liquid scintillation counting on a Tri-Carb 2100 TR liquid scintillation analyzer after addition of 3.5 mL Ultima Gold scintillation cocktail (PerkinElmer Life Sciences). Results are expressed as hydrolysis of tritium substrate in percent of vehicle treated control. IC50 values were calculated by GraphPad®. Data are reported as means of n=3 independent experiments performed in triplicates.

| SMILES | IC50 [1] [nM] | IC50 (FAAH) [nM] |
| --- | --- | --- |
| Cc1ccc(/N=C2\S/C(=C\c3ccc4ncsc4c3)C(=O)N2CC(C)C)cc1 [32_A_X, (2Z,5Z)-2-(p-tolylimino)-5-((benzo[d]thiazol-6-yl)methylene)-3-isobutylthiazolidin-4-one] | 327 | > 100000 |
| O=C1/C(=C/c2ccc3[nH]cnc3c2)S/C(=N\c2ccccc2)N1c1ccccc1 [compound 04, (2Z,5Z)-5-((1H-benzo[d]imidazol-5-yl)methylene)-3-phenyl-2-(phenylimino)thiazolidin-4-one] | 194 | > 100000 |
| O=C1/C(=C/c2ccc3c(c2)OCCO3)S/C(=N\c2ccccc2)N1c1ccccc1 [compound 24, (2Z,5Z)-5-((2,3-dihydrobenzo[b][1,4]dioxin-6-yl)methylene)-3-phenyl-2-(phenylimino)thiazolidin-4-one] | 817 | > 100000 |
| O=C1/C(=C/c2ccc3ncsc3c2)S/C(=N\c2ccccc2)N1c1ccccc1 [compound 32, (2Z,5Z)-5-((benzo[d]thiazol-6-yl)methylene)-3-phenyl-2-(phenylimino)thiazolidin-4-one] | 291 | > 100000 |
